Reference: patent US8415342B2, “Besifloxacin ophthalmic composition for the treatment or control of infection” (Bausch & Lomb Incorporated, priority 2008, dated 2013)
In brackets after ≈: the same amount, converted by molar mass. Read-outs that look alike come from different tables or passages of the source.

Tests used:
Type in all cases: cell-based
[1] = tested on: Staphylococcus aureus; test: MIC, CLSI broth microdilution, clinical isolates; conditions: for MIC50 / MIC90: Staphylococcus aureus
[2] = tested on: Staphylococcus epidermidis; test: MIC, CLSI broth microdilution, clinical isolates; conditions: for MIC50: Staphylococcus epidermidis
[3] = tested on: Staphylococcus lugdunensis; test: MIC, CLSI broth microdilution, clinical isolates; conditions: Staphylococcus lugdunensis (N = 15)
[4] = tested on: Staphylococcus saprophyticus; test: MIC, CLSI broth microdilution, clinical isolates; conditions: Staphylococcus saprophyticus (N = 101)
[5] = tested on: Staphylococcus haemolyticus; test: MIC, CLSI broth microdilution, clinical isolates; conditions: Staphylococcus haemolyticus (N = 101)
[6] = tested on: Staphylococcus warneri; test: MIC, CLSI broth microdilution, clinical isolates; conditions: Staphylococcus warneri (N = 50)
[7] = tested on: Staphylococcus hominis; test: MIC, CLSI broth microdilution, clinical isolates; conditions: Staphylococcus hominis (N = 50)
[8] = tested on: Streptococcus agalactiae; test: MIC, CLSI broth microdilution, clinical isolates; conditions: Streptococcus agalactiae (N = 100)
[9] = tested on: Streptococcus pneumoniae; test: MIC, CLSI broth microdilution, clinical isolates
[10] = tested on: Streptococcus pyogenes; test: MIC, CLSI broth microdilution, clinical isolates; conditions: Streptococcus pyogenes (N = 101)
[11] = tested on: Lancefield group C, F, G streptococci; test: MIC, CLSI broth microdilution, clinical isolates; conditions: G streptococci (N = 50)
[12] = tested on: Viridans streptococci; test: MIC, CLSI broth microdilution, clinical isolates; conditions: Viridans streptococci (N = 156)
[13] = tested on: Citrobacter koseri; test: MIC, CLSI broth microdilution, clinical isolates; conditions: Citrobacter koseri (N = 100)
[14] = tested on: Klebsiella oxytoca; test: MIC, CLSI broth microdilution, clinical isolates; conditions: Klebsiella oxytoca (N = 50)
[15] = tested on: Haemophilus influenzae; test: MIC, CLSI broth microdilution, clinical isolates; conditions: for MIC50 / MIC90: Haemophilus influenzae
[16] = tested on: Legionella pneumophila; test: microbe, parasite or virus in culture
[17] = tested on: Moraxella catarrhalis; test: MIC, CLSI broth microdilution, clinical isolates; conditions: Moraxella catarrhalis (N = 101)
[18] = tested on: Morganella morganii; test: MIC, CLSI broth microdilution, clinical isolates; conditions: Morganella morganii (N = 51)
[19] = Staphylococcus aureus (CNS, N = 16)
[20] = Staphylococcus aureus (CS, N = 14)
[21] = Staphylococcus aureus (MSSA, N = 19)
[22] = Staphylococcus aureus (all phenotypes, N = 30)
[23] = MRSA, Staphylococcus aureus (MRSA, N = 11)
[24] = MSSA, Staphylococcus aureus (MSSA, N = 19)
[25] = Staphylococcus epidermidis (CNS, N = 6)
[26] = Staphylococcus epidermidis (CS, N = 9)
[27] = Staphylococcus epidermidis (MRSE, N = 9)
[28] = Staphylococcus epidermidis (MSSE, N = 6)
[29] = Staphylococcus epidermidis (all phenotypes, N = 15)
[30] = Streptococcus pneumoniae (PSSP, N = 31)
[31] = Haemophilus influenzae (all phenotypes, N = 40)
[32] = Haemophilus influenzae (bla negative, N = 24)
[33] = Haemophilus influenzae (bla positive, N = 16)

In the case of `NC[C@H]1O[C@H](O[C@H]2[C@H](O)[C@@H](O[C@H]3O[C@H](CO)[C@@H](O)[C@H](N)[C@H]3O)[C@H](N)C[C@@H]2N)[C@H](N)C[C@@H]1O` [Tobramycin], the “% S” value [1, 19] is reported as 68.8%, the “% S” value [1, 20] is reported as 92.9% and the “MIC Range” value [1, 20] is reported as 0.12 to 8 µg/mL. The “% S” value ([1]; Staphylococcus aureus (MRSA, N = 11)) was 54.5%, the “% S” value [1, 21] was 94.7% and the “MIC Range” value [1, 21] was 0.12 to 8 µg/mL. For the same compound, the “% S” value [1, 22] was 80.0%, the MIC50 [1, 23] was 1 µg/mL (≈ 2.14 µM) and the MIC90 [1, 23] was > 32 µg/mL. It also gave an MIC50 [1, 24] of 0.25 µg/mL (≈ 0.535 µM), an MIC90 [1, 24] of 1 µg/mL (≈ 2.14 µM) and an MIC50 [1, 19] of 0.5 µg/mL (≈ 1.07 µM). The MIC90 [1, 19] was > 32 µg/mL, the MIC50 [1, 20] was 0.25 µg/mL (≈ 0.535 µM) and the MIC90 [1, 20] was 1 µg/mL (≈ 2.14 µM). For the same compound, the MIC50 [1, 22] was 0.5 µg/mL (≈ 1.07 µM), the MIC90 [1, 22] was > 32 µg/mL and the “% S” value [2, 25] was 83.3%. The “MIC Range” value [2, 25] was 0.06 to 16 µg/mL, the “% S” value [2, 26] was 88.9% and the “MIC Range” value [2, 26] was “≦0.008-8 μg/mL”. The “% S” value [2, 27] was 77.8%, the “MIC Range” value [2, 27] was 0.03 to 16 µg/mL and the “% S” value [2, 28] was 100.0%. The “MIC Range” value [2, 28] was “≦0.008-0.06 μg/mL”, the “% S” value [2, 29] was 86.7% and the MIC90 [2, 29] was 8 µg/mL (≈ 17.1 µM). The “MIC Range” value [2, 29] was “≦0.008-16 μg/mL”, the MIC50 ([2]; MRSE, Staphylococcus epidermidis (MRSE, N = 9)) was 4 µg/mL (≈ 8.56 µM) and the MIC50 [2, 25] was 2 µg/mL (≈ 4.28 µM). For the same compound, the MIC50 [2, 26] was 0.03 µg/mL (≈ 0.0642 µM), the MIC50 [2, 28] was 0.03 µg/mL (≈ 0.0642 µM) and the MIC50 [2, 29] was 0.06 µg/mL (≈ 0.128 µM). The “% S” value [3] was 60.0%, the MIC50 [3] was 0.12 µg/mL (≈ 0.257 µM) and the MIC90 [3] was 32 µg/mL (≈ 68.4 µM). For the same compound, the “% S” value [4] was 99.0%, the MIC50 [4] was 0.015 µg/mL (≈ 0.0321 µM) and the MIC90 [4] was 0.06 µg/mL (≈ 0.128 µM). The “MIC Range” value [4] was “≦0.008-32 μg/mL”, the “% S” value [5] was 64.4% and the MIC50 [5] was 2 µg/mL (≈ 4.28 µM). The MIC90 [5] was 32 µg/mL (≈ 68.4 µM), the “% S” value [6] was 86.0% and the MIC50 [6] was 0.06 µg/mL (≈ 0.128 µM). For the same compound, the MIC90 [6] was 8 µg/mL (≈ 17.1 µM), the “% S” value [7] was 32.0% and the MIC50 [7] was 16 µg/mL (≈ 34.2 µM). It also gave an MIC90 [7] of 32 µg/mL (≈ 68.4 µM), an MIC50 ([8]; read-out: MIC50) of 32 µg/mL (≈ 68.4 µM) and an MIC90 ([8]; read-out: MIC90) of 64 µg/mL (≈ 137 µM). For the same compound, the “MIC Range” value ([9]; Streptococcus pneumoniae (PISP, N = 2)) was 16 to 32 µg/mL, the “MIC Range” value ([9]; Streptococcus pneumoniae (PRSP, N = 2)) was 16 to 32 µg/mL and the MIC50 [9, 30] was 16 µg/mL (≈ 34.2 µM). For the same compound, the MIC90 [9, 30] was 32 µg/mL (≈ 68.4 µM), the “MIC Range” value [9, 30] was 8 to 32 µg/mL and the “MIC Range” value ([9]; Streptococcus pneumoniae (all phenotypes, N = 35)) was 8 to 32 µg/mL. The MIC50 ([9]; Streptococcus pneumoniae (all phenotypes, N = 35), read-out: MIC50) was 16 µg/mL (≈ 34.2 µM), the MIC90 ([9]; Streptococcus pneumoniae (all phenotypes, N = 35), read-out: MIC90) was 32 µg/mL (≈ 68.4 µM) and the “MIC Range” value [10] was 4 to 64 µg/mL. The MIC50 ([10]; read-out: MIC50) was 16 µg/mL (≈ 34.2 µM), the MIC90 ([10]; read-out: MIC90) was 16 µg/mL (≈ 34.2 µM) and the “MIC Range” value [11] was 2 to 32 µg/mL. The MIC50 ([11]; read-out: MIC50) was 8 µg/mL (≈ 17.1 µM), the MIC90 ([11]; read-out: MIC90) was 16 µg/mL (≈ 34.2 µM) and the “MIC Range” value [12] was 0.5 to 128 µg/mL. The MIC50 ([12]; read-out: MIC50) was 16 µg/mL (≈ 34.2 µM), the MIC90 ([12]; read-out: MIC90) was 32 µg/mL (≈ 68.4 µM) and the “% S” value [13] was 99.0%. The MIC50 [13] was 0.5 µg/mL (≈ 1.07 µM), the MIC90 [13] was 1 µg/mL (≈ 2.14 µM) and the “MIC Range” value [13] was 0.25 to 16 µg/mL. For the same compound, the “% S” value [14] was 96.0%, the MIC50 [14] was 0.5 µg/mL (≈ 1.07 µM) and the MIC90 [14] was 1 µg/mL (≈ 2.14 µM). For the same compound, the “MIC Range” value [14] was 0.25 to 8 µg/mL, the “MIC Range” value [15, 31] was 0.06 to 4 µg/mL and the “MIC Range” value [15, 32] was 0.06 to 4 µg/mL. For the same compound, the “MIC Range” value [15, 33] was 0.5 to 4 µg/mL, the MIC50 [15, 31] was 2 µg/mL (≈ 4.28 µM) and the MIC90 [15, 31] was 4 µg/mL (≈ 8.56 µM). The MIC50 [15, 32] was 2 µg/mL (≈ 4.28 µM), the MIC90 [15, 32] was 4 µg/mL (≈ 8.56 µM) and the MIC50 [15, 33] was 2 µg/mL (≈ 4.28 µM). For the same compound, the MIC90 [15, 33] was 2 µg/mL (≈ 4.28 µM), the MIC50 ([16]; Legionella pneumophila) was 1 µg/mL (≈ 2.14 µM) and the MIC90 ([16]; Legionella pneumophila) was 2 µg/mL (≈ 4.28 µM). For the same compound, the “MIC Range” value ([16]; Legionella pneumophila (N = 50)) was 0.25 to 4 µg/mL, the MIC50 [17] was 0.25 µg/mL (≈ 0.535 µM) and the MIC90 [17] was 0.25 µg/mL (≈ 0.535 µM). The “MIC Range” value [17] was 0.03 to 0.5 µg/mL, the “% S” value [18] was 90.2% and the MIC50 [18] was 1 µg/mL (≈ 2.14 µM). The MIC90 [18] was 4 µg/mL (≈ 8.56 µM) and the “MIC Range” value [18] was 0.25 to 32 µg/mL.
